# According to patent publication US20240376123A1, “KRAS G12D INHIBITORS AND USES THEREOF” (SUZHOU ZANRONG PHARMA LIMITED, priority 2021, published 2024):
# Read-outs that look alike come from different tables or passages of the source.
# System: p-ERK in PNAC-1/HPAC cell
# Experiment: Phospho-ERK 1/2 assay (Table 1)
# Assay type: cell-based
# Settings: PNAC-1/HPAC cell, 3 hours compound incubation, read-out: p-ERK IC50
# Description: Allow PNAC-1/HPAC cell growth in a T75 flask in DMEM and 10% 1 fetal calf serum (FCS; Gibco), using standard tissue culture procedures until ˜80% confluency is achieved. Day 1, seed 6000 cells/well in 384 well plate and incubate at 37° C., 5% CO2. Add diluted compound by Echo 550, final DMSO is 0.5%, incubate cells at 37° C., 5% CO2 for 3 hours. Then, remove medium and fix cells with 3.7% formaldehyde in PBS (PFA) by Apricot. Wash with PBS once. Permeabilize cells with cold 100% methanol and repeat wash once with PBS once. Add Li-Cor blocking buffer to each well and incubate 1.5 hours at RT. Remove blocking buffer and add primary antibody mixture (rabbit anti pERK, mouse anti GAPDH). Incubate at 4° C. overnight. Day 2, wash with PBST (Tween-20 in PBS) with total 3 times and then add secondary antibody mixture (goat anti rabbit 800CW (1:800 dilution in the combined solution) and goat anti mouse 680RD (1:800 dilution in the combined solution)), incubate for 60 minutes at RT away from light. Repeat washing with PBST 3 times. After final wash, centrifuge plate up-side-down at 1000 rpm to remove wash solution completely from wells. Before plate scanning, clean the bottom plate surface and the Odyssey* Imager scanning bed (if applicable) with moist, lint-free tissue to avoid any obstructions during scanning. Scan plate with detection in both 700 and 800 nm channels.
SMILES,IC50 (Homo sapiens) [nM],IC50 [nM]
"C#Cc1c(F)ccc2cccc(-c3nc4c5c(nc(C(=O)N[C@H](C)CN(C)C)nc5c3F)N3CC5CCC(N5)[C@H]3CO4)c12 (stereo in doubt) [Compound 33, (5aS,6R,9S)—N—((R)-1-(dimethylamino)propan-2-yl)-2-(8-ethynyl-7-fluoronaphthalen-1-yl)-1-fluoro-5a,6,7,8,9,10-hexahydro-5H-4-oxa-3,10a,11,13,14-pentaaza-6,9-methanonaphtho[1,8-ab]heptalene-12-carboxamide]",75,
"CC(=O)c1cccc2cc(O)cc(-c3nc4c5c(nc(OC[C@@]67CCCN6C[C@H](F)C7)nc5c3F)N3C[C@H]5CC[C@H](N5)[C@H]3CO4)c12 [Compound 26, 1-(8-((5aS,6S,9R)-1-fluoro-12-(((2R,7aS)-2-fluorotetrahydro-1H-pyrrolizin-7a(5H)-yl)methoxy)-5a,6,7,8,9,10-hexahydro-5H-4-oxa-3,10a,11,13,14-pentaaza-6,9-methanonaphtho[1,8-ab]heptalen-2-yl)-6-hydroxynaphthalen-1-yl) ethan-1-one]",148,
"C#Cc1cccc2cccc(-c3nc4c5c(nc(OC[C@@]67CCCN6C[C@H](F)C7)nc5c3F)N3C[C@@H]5CC[C@@H](N5)C3CO4)c12 (stereo partly drawn) [Compound 19, (6R,9S)-2-(8-ethynylnaphthalen-1-yl)-1-fluoro-12-(((2R,7aS)-2-fluorotetrahydro-1H-pyrrolizin-7a(5H)-yl)methoxy)-5a,6,7,8,9,10-hexahydro-5H-4-oxa-3,10a,11,13,14-pentaaza-6,9-methanonaphtho[1,8-ab]heptalene]",29,
"Cc1cc(N)nc(-c2nc3c4c(nc(OC[C@@]56CCCN5C[C@H](F)C6)nc4c2F)N2CC4CCC(N4)[C@H]2CO3)c1C(F)(F)F (stereo in doubt) [Compound 53, 6-((5aS,6R,9S)-1-fluoro-12-(((2R,7aS)-2-fluorotetrahydro-1H-pyrrolizin-7a(5H)-yl)methoxy)-5a,6,7,8,9,10-hexahydro-5H-4-oxa-3,10a,11,13,14-pentaaza-6,9-methanonaphtho[1,8-ab]heptalen-2-yl)-4-methyl-5-(trifluoromethyl) pyridin-2-amine]",457,
"C#Cc1c(F)ccc2cccc(-c3nc4c5c(nc(OCC6(CN7CCOCC7)CC6)nc5c3F)N3C[C@H]5CC[C@H](N5)[C@H]3CO4)c12 [Compound 40, (5aS)-2-(8-ethynyl-7-fluoronaphthalen-1-yl)-1-fluoro-12-((1-(morpholinomethyl)cyclopropyl)methoxy)-5a,6,7,8,9,10-hexahydro-5H-4-oxa-3,10a,11,13,14-pentaaza-6,9-methanonaphtho[1,8-ab]heptalene]",155,
"C#Cc1c(F)ccc2cccc(-c3nc4c5c(nc(OC[C@@]67CCCN6C[C@H](F)C7)nc5c3F)N3CC5CCC(N5)[C@@H]3CO4)c12 (single isomer, unassigned) [Compound 9]",308,
"C#Cc1c(F)ccc2cccc(-c3nc4c5c(nc(OCC67CCCN6C(COC(=O)N(C)C)CC7)nc5c3F)N3CC5CCC(N5)[C@H]3CO4)c12 (stereo in doubt) [Compound 38, (7a-((((5aS,6R,9S)-2-(8-ethynyl-7-fluoronaphthalen-1-yl)-1-fluoro-5a,6,7,8,9,10-hexahydro-5H-4-oxa-3,10a,11,13,14-pentaaza-6,9-methanonaphtho[1,8-ab]heptalen-12-yl)oxy)methyl)hexahydro-1H-pyrrolizin-3-yl)methyl dimethylcarbamate]",,70
"Oc1cc(-c2nc3c4c(nc(OC[C@@]56CCCN5C[C@H](F)C6)nc4c2F)N2C[C@H]4CC[C@H](N4)[C@H]2CO3)c2c(Cl)cccc2c1 [Compound 27, 5-chloro-4-((5aS,6S,9R)-1-fluoro-12-(((2R,7aS)-2-fluorotetrahydro-1H-pyrrolizin-7a(5H)-yl)methoxy)-5a,6,7,8,9,10-hexahydro-5H-4-oxa-3,10a,11,13,14-pentaaza-6,9-methanonaphtho[1,8-ab]heptalen-2-yl)naphthalen-2-ol]",5,
"N#Cc1c(N)sc2cccc(-c3nc4c5c(nc(OC[C@@]67CCCN6C[C@H](F)C7)nc5c3F)N3C[C@@H]5CC[C@@H](N5)C3CO4)c12 (stereo partly drawn) [Compound 22, 2-amino-4-((6R,9S)-1-fluoro-12-(((2R,7aS)-2-fluorotetrahydro-1H-pyrrolizin-7a(5H)-yl)methoxy)-5a,6,7,8,9,10-hexahydro-5H-4-oxa-3,10a,11,13,14-pentaaza-6,9-methanonaphtho[1,8-ab]heptalen-2-yl)benzo[b]thiophene-3-carbonitrile]",493,
"Fc1ccc2cccc(-c3nc4c5c(nc(OC[C@@]67CCCN6C[C@H](F)C7)nc5c3F)N3C[C@@H]5CC[C@@H](N5)C3CO4)c2c1 (stereo partly drawn) [Compound 16, (6R,9S)-1-fluoro-2-(7-fluoronaphthalen-1-yl)-12-(((2R,7aS)-2-fluorotetrahydro-1H-pyrrolizin-7a(5H)-yl)methoxy)-5a,6,7,8,9,10-hexahydro-5H-4-oxa-3,10a,11,13,14-pentaaza-6,9-methanonaphtho[1,8-ab]heptalene]",355,
"Fc1c(-c2cccc3cccc(F)c23)nc2c3c(nc(OC[C@@]45CCCN4C[C@H](F)C5)nc13)N1C[C@@H]3CC[C@@H](N3)C1CO2 (stereo partly drawn) [Compound 15, (6R,9S)-1-fluoro-2-(8-fluoronaphthalen-1-yl)-12-(((2R,7aS)-2-fluorotetrahydro-1H-pyrrolizin-7a(5H)-yl)methoxy)-5a,6,7,8,9,10-hexahydro-5H-4-oxa-3,10a,11,13,14-pentaaza-6,9-methanonaphtho[1,8-ab]heptalene]",221,
"C#Cc1c(F)ccc2cccc(-c3nc4c5c(nc(OC[C@@]67CCCN6C[C@H](F)C7)nc5c3F)N3CC5CCC(N5)C3CO4)c12 (stereo partly drawn) [Compound 8, (6R,9S)-2-(8-ethynyl-7-fluoronaphthalen-1-yl)-1-fluoro-12-(((2R,7aS)-2-fluorotetrahydro-1H-pyrrolizin-7a(5H)-yl)methoxy)-5a,6,7,8,9,10-hexahydro-5H-4-oxa-3,10a,11,13,14-pentaaza-6,9-methanonaphtho[1,8-ab]heptalene]",9,
"Fc1ccc2cccc(-c3nc4c5c(nc(OC[C@@]67CCCN6C[C@H](F)C7)nc5c3F)N3C[C@@H]5CC[C@@H](N5)C3CO4)c2c1Cl (stereo partly drawn) [Compound 11, (6R,9S)-2-(8-chloro-7-fluoronaphthalen-1-yl)-1-fluoro-12-(((2R,7aS)-2-fluorotetrahydro-1H-pyrrolizin-7a(5H)-yl)methoxy)-5a,6,7,8,9,10-hexahydro-5H-4-oxa-3,10a,11,13,14-pentaaza-6,9-methanonaphtho[1,8-ab]heptalene]",53,
"Fc1c(-c2cccc3cccc(Cl)c23)nc2c3c(nc(OC[C@@]45CCCN4C[C@H](F)C5)nc13)N1C[C@@H]3CC[C@@H](N3)C1CO2 (stereo partly drawn) [Compound 12, (6R,9S)-2-(8-chloronaphthalen-1-yl)-1-fluoro-12-(((2R,7aS)-2-fluorotetrahydro-1H-pyrrolizin-7a(5H)-yl)methoxy)-5a,6,7,8,9,10-hexahydro-5H-4-oxa-3,10a,11,13,14-pentaaza-6,9-methanonaphtho[1,8-ab]heptalene]",68,
"Fc1c(-c2cccc(Cl)c2C2CC2)nc2c3c(nc(OC[C@@]45CCCN4C[C@H](F)C5)nc13)N1C[C@@H]3CC[C@@H](N3)C1CO2 (stereo partly drawn) [Compound 23, (6R,9S)-2-(3-chloro-2-cyclopropylphenyl)-1-fluoro-12-(((2R,7aS)-2-fluorotetrahydro-1H-pyrrolizin-7a(5H)-yl)methoxy)-5a,6,7,8,9,10-hexahydro-5H-4-oxa-3,10a,11,13,14-pentaaza-6,9-methanonaphtho[1,8-ab]heptalene]",375,
"Oc1cc(-c2nc3c4c(nc(OC[C@@]56CCCN5C[C@H](F)C6)nc4c2F)N2C[C@@H]4CC[C@@H](N4)C2CO3)c2c(F)cccc2c1 (stereo partly drawn) [Compound 6, 5-fluoro-4-((6R,9S)-1-fluoro-12-(((2R,7aS)-2-fluorotetrahydro-1H-pyrrolizin-7a(5H)-yl)methoxy)-5a,6,7,8,9,10-hexahydro-5H-4-oxa-3,10a,11,13,14-pentaaza-6,9-methanonaphtho[1,8-ab]heptalen-2-yl)naphthalen-2-ol]",86,
"Cc1c(F)ccc2cccc(-c3nc4c5c(nc(OC[C@@]67CCCN6C[C@H](F)C7)nc5c3F)N3C[C@@H]5CC[C@@H](N5)C3CO4)c12 (stereo partly drawn) [Compound 13, (6R,9S)-1-fluoro-2-(7-fluoro-8-methylnaphthalen-1-yl)-12-(((2R,7aS)-2-fluorotetrahydro-1H-pyrrolizin-7a(5H)-yl)methoxy)-5a,6,7,8,9,10-hexahydro-5H-4-oxa-3,10a,11,13,14-pentaaza-6,9-methanonaphtho[1,8-ab]heptalene]",237,
"COc1ccc2cccc(-c3nc4c5c(nc(OC[C@@]67CCCN6C[C@H](F)C7)nc5c3F)N3C[C@@H]5CC[C@@H](N5)C3CO4)c2c1 (stereo partly drawn) [Compound 17, (6R,9S)-1-fluoro-12-(((2R,7As)-2-fluorotetrahydro-1H-pyrrolizin-7a(5H)-yl)methoxy)-2-(7-methoxynaphthalen-1-yl)-5a,6,7,8,9,10-hexahydro-5H-4-oxa-3,10a,11,13,14-pentaaza-6,9-methanonaphtho[1,8-ab]heptalene]",1000,
